Here are results for 51 compounds from ChEMBL document CHEMBL1140849, “Selective small molecule inhibitors of the potential breast cancer marker, human arylamine N-acetyltransferase 1, and its murine homologue, mouse arylamine N-acetyltransferase 2” (Bioorg Med Chem, 2009).

Calls of active or inactive are those of the source. The rule behind the calls is not given here.

Series [1] has as its target T1, Arylamine N-acetyltransferase 1 (Homo sapiens, UniProt P18440).
T1 sequence (P18440 whole entry): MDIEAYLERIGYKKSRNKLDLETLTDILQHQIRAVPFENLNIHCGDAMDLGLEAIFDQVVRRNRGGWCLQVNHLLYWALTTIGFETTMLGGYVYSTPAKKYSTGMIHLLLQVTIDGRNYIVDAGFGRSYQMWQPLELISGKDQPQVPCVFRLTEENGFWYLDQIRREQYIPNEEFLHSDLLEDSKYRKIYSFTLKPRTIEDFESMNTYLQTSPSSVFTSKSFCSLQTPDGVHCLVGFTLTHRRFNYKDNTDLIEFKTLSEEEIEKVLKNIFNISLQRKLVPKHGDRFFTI
In words: Inhibition of human recombinant NAT1 assessed as hydrolysis of acetyl coA using PABA as substrate by Ellman's method. (DTNB colorimetry detects thiols as they appear.)

For series [2], the target named is T2, Arylamine N-acetyltransferase (Pseudomonas aeruginosa (strain ATCC 15692 / PAO1 / 1C / PRS 101 / LMG12228), UniProt Q9HUY3).
T2 sequence (Q9HUY3 whole entry): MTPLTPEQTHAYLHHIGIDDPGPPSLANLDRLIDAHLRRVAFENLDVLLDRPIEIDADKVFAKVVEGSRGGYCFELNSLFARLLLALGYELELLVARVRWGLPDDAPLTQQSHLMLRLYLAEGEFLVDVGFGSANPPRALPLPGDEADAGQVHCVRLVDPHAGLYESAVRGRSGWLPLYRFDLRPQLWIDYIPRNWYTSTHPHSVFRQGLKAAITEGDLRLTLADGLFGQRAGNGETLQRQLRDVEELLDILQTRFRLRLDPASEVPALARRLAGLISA
To be noted: read-out: INH.
Description: Inhibition of Pseudomonas aeruginosa recombinant NAT using isoniazid as substrate at 30 uM

For series [3], the system named is Mycobacterium marinum. In words: Inhibition of Mycobacterium marinum recombinant NAT using isoniazid as substrate at 30 uM.
Series [4] addresses T3, Arylamine N-acetyltransferase 2 (Mus musculus, UniProt P50295).
T3 sequence (P50295 whole entry): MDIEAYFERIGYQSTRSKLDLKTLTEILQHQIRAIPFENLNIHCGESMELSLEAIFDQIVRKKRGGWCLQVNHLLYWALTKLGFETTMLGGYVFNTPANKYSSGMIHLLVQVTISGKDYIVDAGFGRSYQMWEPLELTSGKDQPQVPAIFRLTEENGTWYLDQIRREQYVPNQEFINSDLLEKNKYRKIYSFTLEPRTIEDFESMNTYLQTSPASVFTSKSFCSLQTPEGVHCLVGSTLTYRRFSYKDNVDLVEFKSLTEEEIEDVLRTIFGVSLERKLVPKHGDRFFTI
The experiment in a line: Inhibition of mouse recombinant NAT2 assessed as hydrolysis of acetyl coA using PABA as substrate by Ellman's method.

Series [5] is described as follows: Cytotoxicity against mouse macrophage at 10 ug/ml after 72 hrs by trypan blue exclusion method. The series is classed as cell-based.
Series [6] relates to Mycobacterium marinum. To be noted: 30 uM.
Description: Inhibition of Mycobacterium marinum recombinant NAT using 5-aminosalicylic acid as substrate at 30 uM
The target of series [7] is T2, Arylamine N-acetyltransferase. In words: Inhibition of Pseudomonas aeruginosa recombinant NAT using 5-aminosalicylic acid as substrate at 30 uM. The following applies: read-out: INH.
Series [8] addresses T4, Arylamine N-acetyltransferase 2 (NAT2) (Mus musculus, UniProt P50295).
T4 sequence (P50295 whole entry): T3 sequence (P50295 whole entry)
In words: Inhibition of mouse recombinant NAT2 using 5-aminosalicylic acid as substrate at 30 uM. The following applies: recombinant NAT2, probe 5-aminosalicylic acid.

For another series, the system named is ZR75. The experiment in a line: Inhibition of NAT in human ZR75 cell lysate assessed as acetylation of aryl amine using PABA as substrate at 30 uM. It counts as cell-free.
In series [9] the target is T5, Arylamine N-acetyltransferase 2 (NAT2) (Homo sapiens, UniProt P11245).
T5 sequence (P11245 whole entry): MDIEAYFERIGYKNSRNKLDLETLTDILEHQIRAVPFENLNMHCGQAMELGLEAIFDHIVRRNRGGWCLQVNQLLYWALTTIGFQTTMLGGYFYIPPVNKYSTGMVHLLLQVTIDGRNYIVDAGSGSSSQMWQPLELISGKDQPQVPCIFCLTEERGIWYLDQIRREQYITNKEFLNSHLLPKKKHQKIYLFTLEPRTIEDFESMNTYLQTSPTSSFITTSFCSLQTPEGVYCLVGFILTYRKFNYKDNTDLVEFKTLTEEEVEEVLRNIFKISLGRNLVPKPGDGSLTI
In words: Inhibition of human recombinant NAT2 using 5-aminosalicylic acid as substrate at 30 uM. The following applies: recombinant NAT2, probe 5-aminosalicylic acid.

The target of series [10] is T3, Arylamine N-acetyltransferase 2. The experiment in a line: Inhibition of mouse recombinant NAT2 using PABA as substrate at 30 uM.

In the case of `COc1cccc(/C=C2\SC(=S)NC2=O)c1`, the IC50 in series [1] is more than 30 µM. The inhibition at 30 µM in series [2] is less than 40%. The inhibition in the series with Mycobacterium marinum [3] is less than 40%.
For `Cc1ccc(/C=C2\SC(=S)N(C)C2=O)cc1`, in series [4], the half-maximal inhibitory concentration (IC50) was more than 30 µM.
On the same count and under the same terms, then `CN1C(=O)/C(=C/c2ccccc2O)SC1=S`, with 20.1 µM; and `CCCCCCC/C=C1\SC(=S)NC1=O`, with 6.8 µM.
On the same count and under the same terms, then `C/C(=C1/SC(=S)NC1=O)c1ccccc1`, with 25 µM; and `CN1C(=O)/C(=C/c2ccc3ccccc3c2)SC1=S`, with 4.7 µM; and `Cc1ccccc1/C=C1\SC(=S)N(C)C1=O`, with 4.4 µM.
The same measure, in the same setting: the same measure for `O=C1NC(=O)/C(=C/c2ccc3ccccc3c2)S1`: more than 30 µM.
Consider `O=C1NC(=S)S/C1=C\c1ccc(O)cc1`, for which, in series [1], the IC50 is 16.9 µM. Also, in [2], the inhibition at 30 µM was less than 40%. The inhibition in the series with Mycobacterium marinum [3] is less than 40%.
In the case of `O=C1NC(=S)S/C1=C\c1ccc2ccccc2c1`, the concentration for half-maximal inhibition (IC50) in series [4] stood at 26.9 µM.
In the case of `Cc1ccc(/C=C2\SC(=S)NC2=O)cc1`, the IC50 in series [1] was more than 30 µM. In addition, the inhibition at 30 µM in [2] is less than 40%.
As to `COc1ccccc1/C=C1\SC(=S)NC1=O`, the IC50 in series [1] turned out to be 17.6 µM. Besides, in series [2], the inhibition at 30 µM is less than 40%. Moreover, the inhibition in the series on Mycobacterium marinum [3] was less than 40%.
As to `O=C1NC(=S)S/C1=C\c1ccccc1F`, the 50% inhibitory concentration (IC50) in series [4] is more than 30 µM.
On the same count and under the same terms, the same measure for `CN1C(=O)/C(=C/c2cccc3ccccc23)SC1=S`: more than 30 µM.
With `NN1C(=O)/C(=C/c2ccccc2-c2ccccc2)SC1=S`, in [5], the Activity is less than 80%. In series [4], the IC50 is 0.3 µM.
As for `O=C1NC(=S)S/C1=C\Cc1ccccc1`, the IC50 in series [4] was 24.2 µM.
On the same count and under the same terms, then `CN1C(=O)/C(=C/c2ccc(F)cc2)SC1=S`, with 20.7 µM.
Still for that read-out and setting: the same measure for `NN1C(=O)/C(=C/c2ccc(O)cc2)SC1=S`: 10.1 µM.
On the same count and under the same terms, the same measure for `CCCCCCCCC/C=C1\SC(=S)NC1=O`: 10.2 µM; for `CN1C(=O)/C(=C/c2ccccc2)SC1=S`: more than 30 µM; for `O=C1NC(=S)S/C1=C\c1cccc2ccccc12`: more than 30 µM.
Take `CN1C(=O)/C(=C/c2cccc(F)c2)SC1=S`: the IC50 in [4] is 7.3 µM.
As for `CCCCC/C=C1\SC(=S)NC1=O`, the IC50 in series [4] was found to be 1.3 µM.
Still for that read-out and setting: the same measure for `CN1C(=O)/C(=C/c2ccccc2F)SC1=S`: 11.8 µM; for `Cc1cccc(/C=C2\SC(=S)N(C)C2=O)c1`: more than 30 µM.
`O=C1NC(=S)S/C1=C\c1ccccc1O`: the inhibition at 30 µM in [2] is less than 40%. Besides, the inhibition with Mycobacterium marinum [3] is less than 40%. In addition, the Activity in series [5] is recorded as less than 80%.
For `O=C1NC(=S)S/C1=C\c1ccc(F)cc1`, the IC50 in series [1] was determined as 12.9 µM. The inhibition at 30 µM in series [2] is less than 40%. Besides, in the series with Mycobacterium marinum [3], the inhibition was less than 40%.
Consider `COc1ccc(/C=C2\SC(=S)NC2=O)cc1`, for which, in series [1], the IC50 was more than 30 µM. Moreover, in series [2], the inhibition at 30 µM was less than 40%. The inhibition in the series with Mycobacterium marinum [3] is less than 40%.
In [5], `NN1C(=O)/C(=C/c2ccccc2O)SC1=S` came in with an Activity of less than 80%. Besides, in [4], the IC50 turned out to be 5.1 µM.
For the compound `NN1C(=O)/C(=C/c2ccc(Cl)cc2)SC1=S`, the IC50 in series [4] is 5.7 µM.
The same measure, in the same setting: the same measure for `CN1C(=O)/C(=C/c2ccc(-c3ccccc3)cc2)SC1=S`: 5.5 µM.
Turning to `Cc1ccccc1/C=C1\SC(=S)NC1=O`, in series [2], the inhibition at 30 µM was less than 40%.
In the case of `O=C1NC(=S)S/C1=C\c1ccc(-c2ccccc2)cc1`, in series [2], the inhibition at 30 µM is less than 40%. Besides, the inhibition in the series on Mycobacterium marinum [3] was less than 40%.
For `CN1C(=O)/C(=C/c2ccccc2-c2ccccc2)SC1=S`, the IC50 in [4] amounted to 10.1 µM.
For `O=C1NC(=S)S/C1=C\c1ccc(Cl)c(Cl)c1`, in [2], the inhibition at 30 µM was less than 40%. Moreover, in the series on Mycobacterium marinum [3], the inhibition is less than 40%.
In series [5], `NN1C(=O)/C(=C/c2cc(I)c(O)c(I)c2)SC1=S` gave an Activity of less than 80%.
In the case of `COc1ccc(/C=C2\SC(=S)N(C)C2=O)cc1`, the concentration for half-maximal inhibition (IC50) in [4] turned out to be 1 µM.
The same measure, in the same setting: the same measure for `C/C(=C1/SC(=S)N(C)C1=O)c1ccccc1`: more than 30 µM; for `CN1C(=O)/C(=C/c2ccc(O)cc2)SC1=S`: 14 µM; for `COc1cccc(/C=C2\SC(=S)N(C)C2=O)c1`: 13.6 µM.
Still for that read-out and setting: the same measure for `COc1ccccc1/C=C1\SC(=S)N(C)C1=O`: more than 30 µM.
For `O=C1NC(=S)S/C1=C\c1ccc(Cl)cc1`, the IC50 in [1] was found to be 4.7 µM. Also, in series [2], the inhibition at 30 µM was less than 40%. Also, the inhibition with Mycobacterium marinum [3] is less than 40%.
Consider `O=C1NC(=S)S/C1=C\c1cc(I)c(O)c(I)c1`, for which the inhibition in the series on Mycobacterium marinum [6] is 40%; in the series on Mycobacterium marinum [3], less than 40%. The inhibition at 30 µM is 52% in [7], 104% in series [8], 46% in series [9] and less than 40% in [2]. In addition, the result with ZR75 was Active. For the same compound, the Activity entry is “Active” in [10] and more than 80% in series [5].
Consider `O=C1NC(=S)S/C1=C\c1cccc(F)c1`, for which the IC50 in series [4] was 6.7 µM.
Take `CN1C(=O)/C(=C/c2ccc(Cl)cc2)SC1=S`: in series [4], the IC50 turned out to be 9.4 µM.
On the same count and under the same terms, then `CN1C(=O)/C(=C/Cc2ccccc2)SC1=S`, with more than 30 µM.
On the same count and under the same terms, then `O=C1NC(=S)S/C1=C\c1ccccc1-c1ccccc1`, with 16.5 µM.
Still for that read-out and setting: the same measure for `O=C1NC(=S)S/C1=C\c1ccc(Br)cc1`: more than 30 µM; for `CCC/C=C1\SC(=S)NC1=O`: 7.7 µM.
Take `Cc1cccc(/C=C2\SC(=S)NC2=O)c1`: the inhibition at 30 µM in series [2] is less than 40%. Also, the inhibition with Mycobacterium marinum [3] was less than 40%.
For `O=C1NC(=S)S/C1=C\c1cccc(O)c1`, the inhibition at 30 µM in series [2] was less than 40%. Also, the inhibition with Mycobacterium marinum [3] was less than 40%. The same compound gave an Activity in [5] of less than 80%.

As a reminder, the IC50 is the concentration that inhibits the measured activity by half.
